# Experimental data from patent publication US7018639B1, “Vaccine antigens of Moraxella” (Commonwealth Scientific and Industrial Research Organisation, priority 1999, dated 2006).
# Tested on: M. bovis protease
# Format: biochemical, Moraxella bovis
# Conditions: 37° C.
smiles,measurement,value
"O=S(=O)(F)Cc1ccccc1 [PMSF, phenylmethylsulfonyl fluoride]",protease activity after inhibitor,zero
